Laboratory results published in the NIST ThermoML archive (doi:10.1016/j.jct.2017.03.022).
Numbers after ± are expanded uncertainties.

Assay: xn = mol fraction of the nth substance listed
Conditions: 101 kPa, Liquid; for speed of sound: Frequency=3 MHz, Single path-length method; for mass density: Vibrating tube method

O=C1CCCN1 [2-pyrrolidinone] + CC(O)CO
Conditions | mass density, 303.15 K [kg/m3] | mass density, 308.15 K [kg/m3] | mass density, 313.15 K [kg/m3] | mass density, 318.15 K [kg/m3] | mass density, 323.15 K [kg/m3] | speed of sound, 303.15 K [m/s] | speed of sound, 308.15 K [m/s] | speed of sound, 313.15 K [m/s] | speed of sound, 318.15 K [m/s] | speed of sound, 323.15 K [m/s]
x1 = 0.0994 | 1038.42 ± 1.1 | 1034.26 ± 1 | 1030.26 ± 1 | 1026.14 ± 1 | 1021.99 ± 1 | 1511.8 ± 1.3 | 1497.1 ± 1.3 | 1482.2 ± 1.3 | 1467.6 ± 1.3 | 1453 ± 1.3
x1 = 0.1962 | 1047.15 ± 1 | 1042.74 ± 1 | 1038.53 ± 1 | 1034.14 ± 1 | 1029.74 ± 1 | 1526.8 ± 1.3 | 1511.5 ± 1.3 | 1496.4 ± 1.3 | 1481.6 ± 1.3 | 1466.5 ± 1.3
x1 = 0.3038 | 1056.3 ± 1 | 1051.69 ± 1 | 1047.29 ± 1 | 1042.69 ± 1 | 1038.13 ± 1 | 1543.7 ± 1.3 | 1528.1 ± 1.3 | 1512.5 ± 1.3 | 1497.3 ± 1.3 | 1481.7 ± 1.3
x1 = 0.4148 | 1065.17 ± 1 | 1060.55 ± 1 | 1055.91 ± 1 | 1051.2 ± 1 | 1046.49 ± 1 | 1560.1 ± 1.3 | 1544.3 ± 1.3 | 1528.5 ± 1.3 | 1513.2 ± 1.3 | 1497.3 ± 1.3
x1 = 0.5021 | 1071.72 ± 1 | 1067.1 ± 1 | 1062.38 ± 1 | 1057.63 ± 1 | 1052.9 ± 1 | 1571.9 ± 1.3 | 1555.9 ± 1.3 | 1540 ± 1.3 | 1524.6 ± 1.3 | 1508.5 ± 1.3
x1 = 0.5951 | 1078.36 ± 1 | 1073.71 ± 1 | 1069.03 ± 1 | 1064.29 ± 1 | 1059.57 ± 1 | 1583.5 ± 1.3 | 1567.3 ± 1.3 | 1551.2 ± 1.3 | 1535.7 ± 1.3 | 1519.4 ± 1.3
x1 = 0.6891 | 1084.67 ± 1 | 1080.01 ± 1 | 1075.46 ± 1 | 1070.79 ± 1 | 1066.14 ± 1 | 1594.1 ± 1.2 | 1577.5 ± 1.2 | 1561.4 ± 1.2 | 1545.9 ± 1.2 | 1529.3 ± 1.2
x1 = 0.7994 | 1091.64 ± 1 | 1087.08 ± 1 | 1082.66 ± 1 | 1078.14 ± 1 | 1073.64 ± 1 | 1604.8 ± 1.2 | 1588.2 ± 1.2 | 1572 ± 1.2 | 1556.7 ± 1.2 | 1539.9 ± 1.2
x1 = 0.8908 | 1097.03 ± 1 | 1092.6 ± 1 | 1088.37 ± 1 | 1084.03 ± 1 | 1079.69 ± 1 | 1612.3 ± 1.2 | 1595.6 ± 1.2 | 1579.6 ± 1.2 | 1563.9 ± 1.2 | 1546.7 ± 1.2
x1 = 1 | 1103.07 ± 1 | 1098.99 ± 1 | 1094.9 ± 1 | 1090.82 ± 1 | 1086.75 ± 1 | 1617.7 ± 1.2 | 1601.3 ± 1.2 | 1585.4 ± 1.2 | 1570.4 ± 1.2 | 1553.5 ± 1.2

OCCCO [propan-1,3-diol] + O=C1CCCN1
Conditions | mass density, 303.15 K [kg/m3] | mass density, 308.15 K [kg/m3] | mass density, 313.15 K [kg/m3] | mass density, 318.15 K [kg/m3] | mass density, 323.15 K [kg/m3] | speed of sound, 303.15 K [m/s] | speed of sound, 308.15 K [m/s] | speed of sound, 313.15 K [m/s] | speed of sound, 318.15 K [m/s] | speed of sound, 323.15 K [m/s]
x2 = 0 | 1046.56 ± 1 | 1043.43 ± 1 | 1040.28 ± 1 | 1037.11 ± 1 | 1033.92 ± 1 | 1617.6 ± 1.3 | 1606.2 ± 1.3 | 1594.8 ± 1.3 | 1583.5 ± 1.3 | 1572.1 ± 1.3
x2 = 0.1108 | 1052.98 ± 1 | 1049.7 ± 1 | 1046.4 ± 1 | 1043.08 ± 1 | 1039.74 ± 1 | 1619.8 ± 1.3 | 1607.5 ± 1.3 | 1595.3 ± 1.3 | 1583.4 ± 1.3 | 1571.2 ± 1.3
x2 = 0.2172 | 1059.11 ± 1 | 1055.69 ± 1 | 1052.25 ± 1 | 1048.8 ± 1 | 1045.34 ± 1 | 1621.2 ± 1.3 | 1608.3 ± 1.3 | 1595.4 ± 1.3 | 1582.9 ± 1.3 | 1569.9 ± 1.3
x2 = 0.3044 | 1064.1 ± 1 | 1060.58 ± 1 | 1057.04 ± 1 | 1053.49 ± 1 | 1049.93 ± 1 | 1621.9 ± 1.2 | 1608.6 ± 1.2 | 1595.3 ± 1.2 | 1582.3 ± 1.2 | 1568.7 ± 1.2
x2 = 0.4174 | 1070.53 ± 1 | 1066.89 ± 1 | 1063.24 ± 1 | 1059.57 ± 1 | 1055.89 ± 1 | 1622.4 ± 1.2 | 1608.5 ± 1.2 | 1594.6 ± 1.2 | 1581.1 ± 1.2 | 1566.8 ± 1.2
x2 = 0.5076 | 1075.64 ± 1 | 1071.91 ± 1 | 1068.17 ± 1 | 1064.41 ± 1 | 1060.65 ± 1 | 1622.4 ± 1.2 | 1608 ± 1.2 | 1593.7 ± 1.2 | 1579.9 ± 1.2 | 1565.1 ± 1.2
x2 = 0.6177 | 1081.83 ± 1 | 1078 ± 1 | 1074.17 ± 1 | 1070.32 ± 1 | 1066.47 ± 1 | 1621.9 ± 1.2 | 1607 ± 1.2 | 1592.3 ± 1.2 | 1578.2 ± 1.2 | 1562.8 ± 1.2
x2 = 0.6909 | 1085.92 ± 1 | 1082.04 ± 1 | 1078.15 ± 1 | 1074.25 ± 1 | 1070.34 ± 1 | 1621.4 ± 1.2 | 1606.2 ± 1.2 | 1591.2 ± 1.2 | 1576.8 ± 1.2 | 1561.1 ± 1.2
x2 = 0.8139 | 1092.77 ± 1 | 1088.8 ± 1 | 1084.83 ± 1 | 1080.85 ± 1 | 1076.87 ± 1 | 1620.2 ± 1.2 | 1604.5 ± 1.2 | 1589 ± 1.2 | 1574.4 ± 1.2 | 1558.2 ± 1.2
x2 = 0.8736 | 1096.07 ± 1 | 1092.07 ± 1 | 1088.06 ± 1 | 1084.05 ± 1 | 1080.04 ± 1 | 1619.5 ± 1.2 | 1603.5 ± 1.2 | 1587.9 ± 1.2 | 1573.1 ± 1.2 | 1556.8 ± 1.2
